Test results published in patent US20210346357A1 (priority 2020, published 2021).

System: Symptomatic Acute Lung Injury Associated with COVID-19
Assay: Phase 2 study Part 1, inhaled compound 1 in hospitalized COVID-19 patients
Conditions: for # Subjects Respiratory Failure-Free / # Subjects Alive: number of subjects; for IFN-γ, within-group percent difference in geometric mean from baseline / IL-6, within-group percent difference in geometric mean from baseline / IL-8, within-group percent difference in geometric mean from baseline / IL-10, within-group percent difference in geometric mean from baseline / IP-10, within-group percent difference in geometric mean from baseline / MCP-1, within-group percent difference in geometric mean from baseline / MDC, within-group percent difference in geometric mean from baseline / RAGE, within-group percent difference in geometric mean from baseline / TARC, within-group percent difference in geometric mean from baseline / hsCRP, within-group percent difference in geometric mean from baseline: matched D1 and D7 samples; for Time to Hospital Discharge (Days) Mean ± SD: still hospitalized or died = 28 days; for # Subjects Alive, percent / Died (All-Cause Mortality), number / # Subjects Alive: through Day 28
[1] = COVID-19 patients, 3 mg, Day 28
[2] = COVID-19 patients, 10 mg, Day 7
[3] = COVID-19 patients, 10 mg, Day 14
[4] = COVID-19 patients, 10 mg, Day 21
[5] = COVID-19 patients, 10 mg, Day 28
[6] = mostly in the 3 mg and 10 mg doses

Compound: CCc1cc(O)ccc1-c1ccc2c(-c3nc4c([nH]3)CN(C(C)C)[C@H](C(=O)N3CC(N(C)C)C3)C4)n[nH]c2c1 [Compound 1, (S)-(3-(dimethylamino)azetidin-1-yl)(2-(6-(2-ethyl-4-hydroxyphenyl)-1H-indazol-3-yl)-5-isopropyl-4,5,6,7-tetrahydro-3H-imidazo[4,5-c]pyridin-6-yl)methanone]
- Hospital Discharge, number [1]: 7
- Hospital Discharge, percent [1]: 100%
- Proportion of Subjects Alive and Respiratory Failure-free [1]: 85.7%
- Proportion of Subjects Alive and Respiratory Failure-free, number [1]: 6
- # Subjects Respiratory Failure-Free [1]: 6
- IFN-γ, within-group percent difference in geometric mean from baseline (COVID-19 patients, 3 mg): −90.42%
- IL-6, within-group percent difference in geometric mean from baseline (COVID-19 patients, 3 mg): −80.24%
- IL-8, within-group percent difference in geometric mean from baseline (COVID-19 patients, 3 mg): −48.02%
- IL-10, within-group percent difference in geometric mean from baseline (COVID-19 patients, 3 mg): −70.10%
- IP-10, within-group percent difference in geometric mean from baseline (COVID-19 patients, 3 mg): −81.44%
- MCP-1, within-group percent difference in geometric mean from baseline (COVID-19 patients, 3 mg): −54.15%
- MDC, within-group percent difference in geometric mean from baseline (COVID-19 patients, 3 mg): −23.84%
- RAGE, within-group percent difference in geometric mean from baseline (COVID-19 patients, 3 mg): −82.95%
- TARC, within-group percent difference in geometric mean from baseline (COVID-19 patients, 3 mg): −34.57%
- hsCRP, within-group percent difference in geometric mean from baseline (COVID-19 patients, 3 mg): −74.95%
- Time to Hospital Discharge (Days) Mean ± SD (COVID-19 patients, 3 mg): 15.29 ± 6.651 days
- # Subjects Alive, percent (COVID-19 patients, 3 mg): 100.0%
- Died (All-Cause Mortality), number (COVID-19 patients, 3 mg): 0
- # Subjects Alive (COVID-19 patients, 3 mg): 7
- Clinical Status at Day 28: 1-Not hospitalized, no limitations on activities, number (COVID-19 patients, 10 mg): 5
- Clinical Status at Day 28: 1-Not hospitalized, no limitations on activities, percent (COVID-19 patients, 10 mg): 83.3%
- Clinical Status at Day 28: 2-Not hospitalized, but with limitations on activities and/or requiring home oxygen, number (COVID-19 patients, 10 mg): 1
- Clinical Status at Day 28: 2-Not hospitalized, but with limitations on activities and/or requiring home oxygen, percent (COVID-19 patients, 10 mg): 16.7%
- Clinical Status at Day 28: 3-Hospitalized, not requiring supplemental oxygen, and no longer requiring ongoing medical care, number (COVID-19 patients, 10 mg): 0
- Clinical Status at Day 28: 4-Hospitalized, not requiring supplemental oxygen, but requiring ongoing medical care, number (COVID-19 patients, 10 mg): 0
- Clinical Status at Day 28: 5-Hospitalized, requiring supplemental oxygen, number (COVID-19 patients, 10 mg): 0
- Clinical Status at Day 28: 6-Hospitalized, on non-invasive ventilation or high-flow oxygen devices, number (COVID-19 patients, 10 mg): 0
- Clinical Status at Day 28: 7-Hospitalized, on invasive mechanical ventilation or extracorporeal membrane oxygenation, number (COVID-19 patients, 10 mg): 0
- Clinical Status at Day 28: 8-Death, number (COVID-19 patients, 10 mg): 0
- Still in Hospital at Day 28, number (COVID-19 patients, 10 mg): 0
- Time to Hospital Discharge (Days) Median (COVID-19 patients, 10 mg): 16.50 days
- Modified Borg Dyspnea Score, Baseline, Mean (COVID-19 patients, 10 mg group, baseline value): 6.00
- Modified Borg Dyspnea Score Change from Baseline, Mean (COVID-19 patients, 10 mg, Day 2): −0.33
- Modified Borg Dyspnea Score Change from Baseline, Mean (COVID-19 patients, 10 mg, Day 3): −1.17
- Modified Borg Dyspnea Score Change from Baseline, Mean (COVID-19 patients, 10 mg, Day 4): −1.50
- Modified Borg Dyspnea Score Change from Baseline, Mean (COVID-19 patients, 10 mg, Day 5): −1.17
- Modified Borg Dyspnea Score Change from Baseline, Mean (COVID-19 patients, 10 mg, Day 6): −1.33
- Hospital Discharge, number [2]: 0
- Modified Borg Dyspnea Score Change from Baseline, Mean [2]: −1.67
- Hospital Discharge, number [3]: 2
- Hospital Discharge, percent [3]: 33.3%
- Hospital Discharge, number [4]: 6
- Hospital Discharge, percent [4]: 100%
- # Subjects Respiratory Failure-Free, percent [5]: 100.0%
- Hospital Discharge, number [5]: 6
- Hospital Discharge, percent [5]: 100%
- Proportion of Subjects Alive and Respiratory Failure-free [5]: 100.0%
- Proportion of Subjects Alive and Respiratory Failure-free, number [5]: 6
- # Subjects Respiratory Failure-Free [5]: 6
- IFN-γ, within-group percent difference in geometric mean from baseline (COVID-19 patients, 10 mg): −78.59%
- IL-6, within-group percent difference in geometric mean from baseline (COVID-19 patients, 10 mg): −58.84%
- IL-8, within-group percent difference in geometric mean from baseline (COVID-19 patients, 10 mg): −25.87%
- IL-10, within-group percent difference in geometric mean from baseline (COVID-19 patients, 10 mg): −40.57%
- IP-10, within-group percent difference in geometric mean from baseline (COVID-19 patients, 10 mg): −79.32%
- MCP-1, within-group percent difference in geometric mean from baseline (COVID-19 patients, 10 mg): −21.15%
- MDC, within-group percent difference in geometric mean from baseline (COVID-19 patients, 10 mg): −6.70%
- RAGE, within-group percent difference in geometric mean from baseline (COVID-19 patients, 10 mg): −54.44%
- TARC, within-group percent difference in geometric mean from baseline (COVID-19 patients, 10 mg): −21.21%
- hsCRP, within-group percent difference in geometric mean from baseline (COVID-19 patients, 10 mg): −52.13%
- Time to Hospital Discharge (Days) Mean ± SD (COVID-19 patients, 10 mg): 15.17 ± 4.446 days
- # Subjects Alive, percent (COVID-19 patients, 10 mg): 100.0%
- Died (All-Cause Mortality), number (COVID-19 patients, 10 mg): 0
- # Subjects Alive (COVID-19 patients, 10 mg): 6
- tolerability (COVID-19 patients, single daily dose of 1 mg, 3 mg, and 10 mg for up to 7 days): generally well tolerated
- % subjects alive/reduced mortality, compared to Placebo (all compound 1 groups): positive trend
- % subjects respiratory-failure free at Day 28, compared to Placebo (all compound 1 groups): positive trend
- clinical improvement, 8-point Clinical Status Scale from Day 1 to Day 28, compared to Placebo (all compound 1 groups): positive trend
- earlier time to hospital discharge, compared to Placebo (all compound 1 groups): positive trend
- improvement in Modified Borg Dyspnea Score in mean change from baseline at Day 7, compared to Placebo (all compound 1 groups): positive trend
- reduction in alveolar epithelial cell injury marker RAGE [6]: positive trend
- reduction of inflammation markers including hsCRP, IFN-g, IL-6, IP-10 [6]: positive trend
